Measured values taken from patent US10433545B2, “Non-streaking durable composition for cleaning and disinfecting hard surfaces” (Ecolab USA Inc., priority 2016, dated 2019).

How the values were obtained:
[1] = system: feline calicivirus; experiment: FCV (feline calicivirus, norovirus surrogate) log reduction; type: cell-based; conditions: surfactant combined with Bardac 2050 quat
Method: Variations of this formula were then tested against feline calicivirus, which is norovirus surrogate. Bardac 2050 by itself was the control.
Quat was tested with each surfactant alone to determine which surfactant was interfering. Also, Lonzabac 12 was added to one formula. Streak testing was performed on each formula. FCV (feline calicivirus) testing was done in 400 ppm hard water with a 10 minute contact time and soil.

[2] = list of typical surfactants; CMC measured in water at 20 to 25 degrees C; cited from earlier work
[3] = system: S. aureus; experiment: OECD method log reduction, S. aureus; type: cell-based, Staphylococcus aureus; conditions: 400 ppm water; 750 ppm quat
Method: The germicidal test methods referred to are those approved by the EPA for germicide registration in force at the time of the patent application. Staphylococcus aureus is the ATCC 6538 strain.
Formulas with passable or ok glass performance and formulas of interest were then tested for antimicrobial efficacy.
Four log reduction is considered passing for this method.

| SMILES | FCV kill, result in words [1] | CMC (ppm) [2] [ppm] | OECD log reduction Staph [3] [log] |
| --- | --- | --- | --- |
| CCCCCCCCCCCC[N+](C)(C)[O-] [Barlox 12, Lauryldimethyl amine oxide] | interferes with FCV kill |  |  |
| CCCCC(CC)CO[C@H]1O[C@H](CO)[C@@H](O)[C@H](O)[C@H]1O (stereo partly drawn) [AG 6202, a-D-Glucopyranoside, 2-ethylhexyl] | does not | 14000 |  |
| CCCCCCCCCC[N+](C)(C)CCCCCCCCCC.[Cl-] [Bardac 2250, Didecyldimethylammoniumchloride] |  |  | 1.6 |
